{
  "source": "patent US5378718A",
  "about": "“1,4-dihydropyridine derivatives” (Cedona Pharmaceuticals B.V., priority 1990, dated 1995)",
  "data": [
    {"system": "arterial blood pressure", "test": "Anesthetized rabbit experiments, lowering of arterial blood pressure", "type": "in vivo, New Zealand white rabbits", "parameters": "key: Inactive: No decrease or decrease less than 5%; Active: Decrease between 5 and 40%; Very Active: Decrease greater than 40%", "conditions": "end of 10 min i.v. infusion at highest dose tested (150-200 μg×kg^-1×min^-1), decrease as percentage of basal value", "protocol": "[…]\nAnimals Anesthesia and Surgical Procedures\nNew Zealand white rabbits (2.5-3 kg) were anesthetized (30 mg×kg^-1 pentobarbitone, i.v., supplemetal doses as needed). Tracheotomy was performed, and an intra-tracheal cannula was inserted. No artificial ventilation was applied and body temperature was maintained at 37°-38° C.\nLeft ventricular pressure (LVP) was measured (millar Mikro-Tip catheter via the right carotid artery with transducer in the left ventricle). The LVP signal was differentiated electronically to obtain the rate of change of LVP (LV dP/dt). The heart rate (HR) was derived from the LVP pulse signal. The jugular vein was cannulated for infusion of the test compounds. Aortic blood pressure (SAP and DAP) was monitored (Gould-Statham pressure transducer) by inserting a polyethylene catheter filled with heparin (50 IU×ml^-1) through the femoral artery into the abdominal aorta. Heparin (150 IU×kg^-1, i.v.) was administered to prevent blood clotting.\nAfter completion of surgical procedures, the rabbits were allowed to recover for 15 minutes before drug administration was started.\nInfusion of Test Compounds and Test Protocol\nDrugs were infused at constant rate (0.5 ml×min^-1) for 10 minutes at various doses, resulting in a typical dose range of 2.0, 20.0 and 200 μg×kg^-1 ×min^-1 (2.5 kg rabbit).\nDue to poor solubility, 1 mg×ml^-1 solutions of all the compounds tested were prepared in Intralipid^(R) 10%, containing 10% (v/v) dimethyl sulfoxide (DMSO). […] At the infusion of lower doses, the 1 mg×ml^-1 stock solutions were diluted with Intralipid^(R) 10%.\nThe presented data are based on the effects obtained at the end of the 10 min infusion period at the highest dose tested (150-200 μg×kg^-1 'min^-1).\nThe indicated ratings are referring to the effects (decrease, defined as percentage of basal value before infusion of the drug) on arterial blood pressure as follows: […]", "values": [
      {"compound": "2,6-Dimethyl-3-methyloxycarbonyl-5-methyloxycarbonyl-4-[2-(nitroxyhexyloxyphenyl)]-1,4-dihydropyridine [Example XXXI]", "Activity with regard to the lowering of blood pressure": "Active"},
      {"compound": "CCOC(=O)C1=C(C)NC(C)=C(C(=O)OCC)C1c1ccc(OC(=O)CCCO[N+](=O)[O-])cc1", "note": "[Example I, 3,5-Diethoxycarbonyl-2,6-dimethyl-4-[4-(3-nitroxypropyl)carbonyloxy]phenyl-1,4-dihydropyridine]", "Activity with regard to the lowering of blood pressure": "Active"},
      {"compound": "COC(=O)C1=C(C)NC(C)=C(C(=O)OC)C1c1cccc(OC)c1OCCO[N+](=O)[O-]", "note": "[Example XVII, 3,5-Dimethoxycarbonyl-2,6-dimethyl-4-[3-methoxy-2-(2-nitroxyethoxy)phenyl]-1,4-dihydropyridine×H2 O]", "Activity with regard to the lowering of blood pressure": "Active"},
      {"compound": "CCOc1cccc(C2C(C(=O)OC)=C(C)NC(C)=C2C(=O)OC)c1OCCO[N+](=O)[O-]", "note": "[Example XVIII, 3,5-Dimethoxycarbonyl-2,6-dimethyl-4-[3-ethoxy-2-(2-nitroxyethoxy)phenyl]-1,4-dihydropyridine×H2 O]", "Activity with regard to the lowering of blood pressure": "Active"},
      {"compound": "COC(=O)C1=C(C)NC(C)=C(C(=O)OC)C1c1cc(Cl)ccc1OCCO[N+](=O)[O-]", "note": "[Example XV]", "Activity with regard to the lowering of blood pressure": "Active"},
      {"compound": "CCOC(=O)C1=C(C)NC(C)=C(C(=O)OCC)C1c1ccccc1OCCOCCOCCO[N+](=O)[O-]", "note": "[Example XX, 3,5-Diethoxycarbonyl-2,6-dimethyl-4-(2-{2-[2-(2-nitroxy-ethoxy)ethoxy]ethoxy}-phenyl)-1,4-dihydropyridine]", "Activity with regard to the lowering of blood pressure": "Active"},
      {"compound": "COC(=O)C1=C(C)NC(C)=C(C(=O)OC)C1c1cc(Br)ccc1OCCO[N+](=O)[O-]", "note": "[XIX, 4-[5-Bromo-2-(2-nitroxyethoxy)phenyl]-3,5-dimethoxy-carbonyl-2,6-dimethyl-1,4-dihydropyridine]", "Activity with regard to the lowering of blood pressure": "Active"}
    ]},
    {"system": "contracted rat aorta", "test": "In vitro rat aorta assay, relaxation of KCl-contracted aorta strips", "type": "cell-based", "conditions": "rat thoracic aorta strips contracted with 50 mM KCl, 1.25 mM CaCl2; concentration at which residual contraction is 50% of maximum", "protocol": "Strips of thoracial rat aortae (without aortic arch, helically cut; length 1-1.5 cm; width about 2 mm) were place in an organ bath [20 ml; Krebs Ringer medium bubbled with O2 /CO2 (95/5%) at 37` C.]. A resting tension of 0.5 g was applied and the preparations were equilibrated during 100 min (fresh buffer solution every 20 min). The strips were isotonically contracted with 50 mM KCl (equimolar part of NaCl in buffer omitted) in the presence of 1.25 mM CaCl2.\nDrug-induced relaxation was tested at increasing concentration (half log steps), till maximal or full relaxation (corresponding to basal precontraction value of organ length) had been reached.\nResponses were calculated as change in organ length relatively to maximal displacement by contraction, EC50 values corresponding to the drug concentration at which residual contraction is 50% of maximum.", "units": {"EC50": "nM"}, "values": [
      {"compound": "COC(=O)C1=C(C)NC(C)=C(C(=O)OC)C1c1ccccc1OCCO[N+](=O)[O-]", "note": "[Example VII, 3,5-Dimethoxycarbonyl-2,6-dimethyl-4-[2-(2-nitroxy-ethoxy)phenyl]-1,4-dihydropyridine]", "EC50": 59},
      {"compound": "COC(=O)C1=C(C)NC(C)=C(C(=O)OC)C1c1cc([N+](=O)[O-])ccc1OCCO[N+](=O)[O-]", "note": "[Example XIV, 3,5-Dimethoxycarbonyl-2,6-dimethyl-4-[2-(2-nitroxy-ethoxy)-5-nitrophenyl]-1,4-dihydropyridine]", "EC50": 80},
      {"compound": "COC(=O)C1=C(C)NC(C)=C(C(=O)OC)C1c1cccc(OC)c1OCCO[N+](=O)[O-]", "note": "[Example XVII, 3,5-Dimethoxycarbonyl-2,6-dimethyl-4-[3-methoxy-2-(2-nitroxyethoxy)phenyl]-1,4-dihydropyridine×H2 O]", "EC50": 88},
      {"compound": "COC(=O)C1=C(C)NC(C)=C(C(=O)OC)C1c1cc(Cl)ccc1OCCO[N+](=O)[O-]", "note": "[Example XV]", "EC50": 85},
      {"compound": "CCOC(=O)C1=C(C)NC(C)=C(C(=O)OCC)C1c1ccccc1OCCOCCOCCO[N+](=O)[O-]", "note": "[Example XX, 3,5-Diethoxycarbonyl-2,6-dimethyl-4-(2-{2-[2-(2-nitroxy-ethoxy)ethoxy]ethoxy}-phenyl)-1,4-dihydropyridine]", "EC50": 38},
      {"compound": "CCOC(=O)C1=C(C)NC(C)=C(C(=O)OCC)C1c1ccccc1OCCO[N+](=O)[O-]", "note": "[Example XXI, 3,5-Diethoxycarbonyl-2,6-dimethyl-4-[2-(2-nitroxy-ethoxy)phenyl]-1,4-dihydropyridine]", "EC50": 14},
      {"compound": "CCOC(=O)C1=C(C)NC(C)=C(C(=O)OCC)C1c1ccccc1OCC(C)(C)CO[N+](=O)[O-]", "note": "[Example XXII, 3,5-Diethoxycarbonyl-2,6-dimethyl-4-[2-(2,2-dimethyl-3-nitroxypropoxy)-phenyl]-1,4-dihydropyridine]", "EC50": 60},
      {"compound": "CCOC(=O)C1=C(C)NC(C)=C(C(=O)OC)C1c1ccccc1OCC(C)(C)CO[N+](=O)[O-]", "note": "(stereo not shown) [Example XXIII, 2,6-Dimethyl-4-[2-(2,2-dimethyl-3-nitroxypropoxy)-phenyl]-3-ethoxycarbonyl-5-methoxycarbonyl-1,4-dihydro-pyridine×H2 O]", "EC50": 28},
      {"compound": "CCOC(=O)C1=C(C)NC(C)=C(C(=O)OCC)C1c1ccccc1OC[C@H]1CC[C@H](CO[N+](=O)[O-])CC1", "note": "[Example XXIV, 3,5-Diethoxycarbonyl-2,6-dimethyl-4-[2-[(4-nitroxymethyl-(trans)-cyclohexyl)methoxy]phenyl]-1,4-dihydropyridine]", "EC50": 7.8},
      {"compound": "CCOC(=O)C1=C(C)NC(C)=C(C(=O)OC)C1c1ccccc1OCCCCO[N+](=O)[O-]", "note": "(stereo not shown) [Example XXIX, 2,6-Dimethyl-3-ethoxycarbonyl-5-methoxycarbonyl-4-[2-(4-nitroxybutoxy)phenyl]-1,4-dihydropyridine×2H2 O]", "EC50": 2.6},
      {"compound": "CCOC(=O)C1=C(C)NC(C)=C(C(=O)OCC)C1c1ccccc1OCCCCCCCCCCO[N+](=O)[O-]", "note": "[Example XXV, 3,5-Diethoxycarbonyl-2,6-dimethyl-4-[2-(10-nitroxy-decyloxy)phenyl]-1,4-dihydropyridine]", "EC50": 67},
      {"compound": "CCOC(=O)C1=C(C)NC(C)=C(C(=O)OC)C1c1ccccc1OCCCO[N+](=O)[O-]", "note": "(stereo not shown) [Example XXVI, 2,6-Dimethyl-3-ethoxycarbonyl-5-methoxycarbonyl-4-[2-(3-nitroxypropoxy)phenyl]-1,4-dihydropyridine]", "EC50": 12},
      {"compound": "COC(=O)C1=C(C)NC(C)=C(C(=O)OC)C1c1ccccc1OCCCO[N+](=O)[O-]", "note": "[Example XXVII, 3,5-Dimethoxycarbonyl-2,6-dimethyl-4-[2-(3-nitroxypropoxy)phenyl]-1,4-dihydropyridine]", "EC50": 5.7},
      {"compound": "CCOC(=O)C1=C(C)NC(C)=C(C(=O)OCC)C1c1ccccc1OCCCO[N+](=O)[O-]", "note": "[Example XXVIII]", "EC50": 7.7},
      {"compound": "COC(=O)C1=C(C)NC(C)=C(C(=O)OC)C1c1ccccc1OCCCCCCO[N+](=O)[O-]", "note": "[Example XXX, 3,5-Dimethoxycarbonyl-2,6-dimethyl-4-[2-(6-nitroxyhexyloxy)phenyl]-1,4-dihydropyridine]", "EC50": 9},
      {"compound": "COC(=O)C1=C(C)NC(C)=C(C(=O)OC)C1c1ccccc1OC[C@H]1CC[C@H](CO[N+](=O)[O-])CC1", "note": "[Example XXXII, 3,5-Dimethoxycarbonyl-2,6-dimethyl-4-{2-[4-nitroxymethyl(trans)cyclohexylmethoxy]phenyl}-1,4-dihydropyridine]", "EC50": 6.5},
      {"compound": "COC(=O)C1=C(C)NC(C)=C(C(=O)OC)C1c1ccccc1OCC(C)O[N+](=O)[O-]", "note": "(stereo not shown) [Example XXXIII, 3,5-Dimethoxycarbonyl-2,6-dimethyl-4-{2-[2-nitroxypropyloxy)phenyl}-1,4-dihydropyridine]", "EC50": 16},
      {"compound": "COC(=O)C1=C(C)NC(C)=C(C(=O)OC)C1c1ccccc1OCCCCCCCCO[N+](=O)[O-]", "note": "[Example XXXV, 2,6-Dimethyl-3,5-dimethoxycarbonyl-4-[2-(8-nitroxyoctyloxy)phenyl]-1,4-dihydropyridine]", "EC50": 5},
      {"compound": "COC(=O)C1=C(C)NC(C)=C(C(=O)OC)C1c1ccccc1OC1CCCCC1O[N+](=O)[O-]", "note": "(stereo not shown) [Example XXXVII, 3,5-Dimethoxycarbonyl-2,6-dimethyl-4-[2-(2-nitroxycyclohexoxy)phenyl]-1,4-dihydropyridine×methanol]", "EC50": 68},
      {"compound": "COC(=O)C1=C(C)NC(C)=C(C(=O)OC)C1c1ccccc1OC[C@@H](C)CO[N+](=O)[O-]", "note": "[Example XXXVIII]", "EC50": 75},
      {"compound": "COC(=O)C1=C(C)NC(C)=C(C(=O)OC)C1c1cc(Br)ccc1OCCO[N+](=O)[O-]", "note": "[XIX, 4-[5-Bromo-2-(2-nitroxyethoxy)phenyl]-3,5-dimethoxy-carbonyl-2,6-dimethyl-1,4-dihydropyridine]", "EC50": 80}
    ]}
  ]
}
